Consider 21 molecules from patent US9783511B2, “Carbamate benzoxazine propionic acids and acid derivatives for modulation of RORgamma activity and the treatment of disease” (Merck Sharp & Dohme Corp., priority 2013, dated 2017).

Molecules are shown by their SMILES.

This test has as its target human RORgammaT-Ligand Binding Domain (LBD) (Homo sapiens (Human), UniProt P51449). The test can be described thus: RORγ-Ligand Binding Domain TR-FRET Assay (co-activator peptide SRC1_2 recruitment). The format is biochemical. The note with it: HIS-tagged RORγ-LBD 3 nM, biotinylated SRC1 LXXLL peptide 100 nM, incubated overnight at 4° C., 665 nm/615 nm ratio. From the text:
Activation of RORgammaT activity can be measured using, e.g., a biochemical TR-FRET assay. In such an assay, interaction of cofactor-derived peptides with human RORgammaT-Ligand Binding Domain (LBD) can be measured.
To identify novel antagonists of RORgammaT, an assay was developed which employs the interaction of RORgammaT with its co-activator peptide SRC1_2. […] The RORγ-Ligand Binding Domain TR-FRET Assay was run according to the following protocol.
HIS-tagged RORγ-LBD protein was recombinantly expressed in Escherichia coli. The RORγ-LBD protein was purified by Ni^2+-affinity resin. Purified protein was then diluted in assay buffer (50 mM Tris pH 7.0, 50 mM KCl, 1 mM EDTA, 0.1 mM DTT, 100 μg/mL bovine serum albumin, delipidated) to obtain a RORγ-LBD final concentration of 3 nM.
Compounds to be tested were injected to the 384-well assay plate using Acoustic Droplet Ejection technology by Echo 550 liquid handler (Labcyte, CA).
(TR-FRET usually uses a lanthanide donor and a delayed reading to cut background.)

Sequence of human RORgammaT-Ligand Binding Domain (LBD) (P51449 269-508): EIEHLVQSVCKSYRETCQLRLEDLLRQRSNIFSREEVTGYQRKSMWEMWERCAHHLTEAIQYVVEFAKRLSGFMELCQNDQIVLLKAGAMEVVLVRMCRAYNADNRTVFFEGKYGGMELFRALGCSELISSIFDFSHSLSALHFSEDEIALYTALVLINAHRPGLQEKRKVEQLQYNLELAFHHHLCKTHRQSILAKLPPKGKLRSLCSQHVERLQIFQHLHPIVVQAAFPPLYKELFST

By IC50 is commonly meant the midpoint of a concentration-inhibition curve. Take `COc1cc(S(=O)(=O)N2C[C@H]([C@@H]3C[C@@H]3C(=O)O)Oc3ccc(NC(=O)OC(C)(C)C(F)(F)F)cc32)ccc1F` (single isomer, unassigned) [Example 22N, (1R,2S or 1R,2R or 1S,2S or 1S,2R)-2-((S)-4-((4-fluoro-3-methoxyphenyl)sulfonyl)-6-((((1,1,1-trifluoro-2-methylpropan-2-yl)oxy)carbonyl)amino)-3,4-dihydro-2H-benzo[b][1,4]oxazin-2-yl)cyclopropanecarboxylic acid]: the IC50 worked out at 5.87 nM. On to `COc1cc(S(=O)(=O)N2C[C@H]([C@H]3C[C@@H]3C(=O)O)Oc3ccc(NC(=O)OC(C)(C)C(F)(F)F)cc32)ccc1F` (single isomer, unassigned) [Example 22i, (1R,2S or 1R,2R or 1S,2S or 1S,2R)-2-((S)-4-((4-fluoro-3-methoxyphenyl)sulfonyl)-6-((((1,1,1-trifluoro-2-methylpropan-2-yl)oxy)carbonyl)amino)-3,4-dihydro-2H-benzo[b][1,4]oxazin-2-yl)cylcopropanecarboxylic acid], for which the IC50 was 22.4 nM. Regarding `COc1cc(S(=O)(=O)N2C[C@H](CCC(=O)O)Oc3ccc(NC(=O)O[C@@H](C)C(C)(C)C)cc32)ccc1F` (single isomer, unassigned) [Example 24C, 3-{(2S)-4-[(4-fluoro-3-methoxyphenyl)sulfonyl]-6-[({[(1S or 1R)-1,2,2-trimethylpropyl]oxy}carbonyl)amino]-3,4-dihydro-2H-1,4-benzoxazin-2-yl}propanoic acid], the half-maximal inhibitory concentration (IC50) turned out to be 3.8 nM.

As to `COc1cc(S(=O)(=O)N2C[C@H](CCC(=O)O)Oc3ccc(NC(=O)O[C@H](C)C(C)(C)C)cc32)ccc1F` (single isomer, unassigned) [Example 24D, 3-{(2S)-4-[(4-fluoro-3-methoxyphenyl)sulfonyl]-6-[({[(1S or 1R)-1,2,2-trimethylpropyl]oxy}cxarbonyl)amino]-3,4-dihydro-2H-1,4-benzoxazin-2-yl}propanoic acid], the IC50 came out at 3.73 nM. As for `CCn1cc(S(=O)(=O)N2C[C@H](CCC(=O)O)Oc3ccc(NC(=O)OC(C)(C)C(F)(F)F)cc32)c(OCCO)n1` (stereo in doubt) [Example 6CA, 3-(4-{[1-ethyl-3-(2-hydroxyethoxy)-1H-pyrazol-4-yl]sulfonyl}-6-{[(2,2,2-trifluoro-1,1-dimethylethoxy)carbonyl]amino}-3,4-dihydro-2H-1,4-benzoxazin-2-yl)propanoic acid], the figure is 11.4 nM.

Turning to `CC(C)(OC(=O)Nc1ccc2c(c1)N(S(=O)(=O)c1cccc(Br)c1)C[C@H](CCC(=O)O)O2)C(F)(F)F` [Example 6AA, (S)-3-(4-((3-bromophenyl)sulfonyl)-6-((((1,1,1-trifluoro-2-methylpropan-2-yl)oxy)carbonyl)amino)-3,4-dihydro-2H-benzo[b][1,4]oxazin-2-yl)propanoic acid], the IC50 was found to be 6 nM. The result for `CCOc1nn(C(F)F)cc1S(=O)(=O)N1C[C@H](CCC(=O)O)Oc2ccc(NC(=O)OC(C)(C)C(F)(F)F)cc21` [Example 6AB, (S)-3-(4-((1-(difluoromethyl)-3-ethoxy-1H-pyrazol-4-yl)sulfonyl)-6-((((1,1,1-trifluoro-2-methylpropan-2-yl)oxy)carbonyl)amino)-3,4-dihydro-2H-benzo[b][1,4]oxazin-2-yl)propanoic acid] reads 9 nM; that for `CC(C)(OC(=O)Nc1ccc2c(c1)N(S(=O)(=O)c1cccc(C3CC3)c1)C[C@H](CCC(=O)O)O2)C(F)(F)F` [Example 6AC, (S)-3-(4-((3-cyclopropylphenyl)sulfonyl)-6-((((1,1,1-trifluoro-2-methylpropan-2-yl)oxy)carbonyl)amino)-3,4-dihydro-2H-benzo[b][1,4]oxazin-2-yl)propanoic acid], 8 nM; that for `CC(C)(OC(=O)Nc1ccc2c(c1)N(S(=O)(=O)c1ccc3c(c1)CCO3)C[C@H](CCC(=O)O)O2)C(F)(F)F` [Example 6AE, (S)-3-(4-((2,3-dihydrobenzofuran-5-yl)sulfonyl)-6-((((1,1,1-trifluoro-2-methylpropan-2-yl)oxy)carbonyl)amino)-3,4-dihydro-2H-benzo[b][1,4]oxazin-2-yl)propanoic acid], 12.4 nM. The result for `CC(C)(OC(=O)Nc1ccc2c(c1)N(S(=O)(=O)c1c(Cl)nc3sccn13)C[C@H](CCC(=O)O)O2)C(F)(F)F` [Example 6AF, (S)-5-((2-(2-carboxyethyl)-6-((((1,1,1-trifluoro-2-methylpropan-2-yl)oxy)carbonyl)amino)-2H-benzo[b][1,4]oxazin-4(3H)-yl)sulfonyl)-6-chloroimidazo[2,1-b]thiazole] reads 6.2 nM; that for `CC(C)(OC(=O)Nc1ccc2c(c1)N(S(=O)(=O)c1ccc(Cl)c(Cl)c1)C[C@H](CCC(=O)O)O2)C(F)(F)F` [Example 6AH, (S)-3-(4-((3,4-dichlorophenyl)sulfonyl)-6-((((1,1,1-trifluoro-2-methylpropan-2-yl)oxy)carbonyl)amino)-3,4-dihydro-2H-benzo[b][1,4]oxazin-2-yl)propanoic acid], 8.84 nM; that for `Cc1ccc(S(=O)(=O)N2C[C@H](CCC(=O)O)Oc3ccc(NC(=O)OC(C)(C)C(F)(F)F)cc32)cc1Cl` [Example 6AJ, (S)-3-(4-((3-chloro-4-methylphenyl)sulfonyl)-6-((((1,1,1-trifluoro-2-methylpropan-2-yl)oxy)carbonyl)amino)-3,4-dihydro-2H-benzo[b][1,4]oxazin-2-yl)propanoic acid], 14 nM. The result for `Cc1c(Cl)cc(F)cc1S(=O)(=O)N1C[C@H](CCC(=O)O)Oc2ccc(NC(=O)OC(C)(C)C(F)(F)F)cc21` [Example 6AK, (S)-3-(4-((3-chloro-5-fluoro-2-methylphenyl)sulfonyl)-6-((((1,1,1-trifluoro-2-methylpropan-2-yl)oxy)carbonyl)amino)-3,4-dihydro-2H-benzo[b][1,4]oxazin-2-yl)propanoic acid] reads 11.1 nM. `CC(C)(OC(=O)Nc1ccc2c(c1)N(S(=O)(=O)c1ccc(Cl)cn1)C[C@H](CCC(=O)O)O2)C(F)(F)F` [Example 6AL, (S)-2-((2-(2-carboxyethyl)-6-((((1,1,1-trifluoro-2-methylpropan-2-yl)oxy)carbonyl)amino)-2H-benzo[b][1,4]oxazin-4(3H)-yl)sulfonyl)-5-chloropyridine]: the IC50 is 15 nM.

With `COc1cc(C)ccc1S(=O)(=O)N1C[C@H](CCC(=O)O)Oc2ccc(NC(=O)OC(C)(C)C(F)(F)F)cc21` [Example 6AQ, (S)-3-(4-((2-methoxy-4-methylphenyl)sulfonyl)-6-((((1,1,1-trifluoro-2-methylpropan-2-yl)oxy)carbonyl)amino)-3,4-dihydro-2H-benzo[b][1,4]oxazin-2-yl)propanoic acid], the IC50 turned out to be 17.1 nM. The result for `COc1cc(S(=O)(=O)N2C[C@H](CCC(=O)O)Oc3ccc(NC(=O)OC(C)(C)C(F)(F)F)cc32)ccn1` [Example 6AV, (S)-4-((2-(2-carboxyethyl)-6-((((1,1,1-trifluoro-2-methylpropan-2-yl)oxy)carbonyl)amino)-2H-benzo[b][1,4]oxazin-4(3H)-yl)sulfonyl)-2-methoxypyridine] reads 24.1 nM; that for `Cc1cc(S(=O)(=O)N2C[C@H](CCC(=O)O)Oc3ccc(NC(=O)OC(C)(C)C(F)(F)F)cc32)c(F)cc1F` [Example 6AW, (S)-3-(4-((2,4-difluoro-5-methylphenyl)sulfonyl)-6-((((1,1,1-trifluoro-2-methylpropan-2-yl)oxy)carbonyl)amino)-3,4-dihydro-2H-benzo[b][1,4]oxazin-2-yl)propanoic acid], 7.71 nM; that for `Cc1nn(C(F)F)cc1S(=O)(=O)N1C[C@H](CCC(=O)O)Oc2ccc(NC(=O)OC(C)(C)C(F)(F)F)cc21` [Example 6AX, (S)-4-((2-(2-carboxyethyl)-6-((((1,1,1-trifluoro-2-methylpropan-2-yl)oxy)carbonyl)amino)-2H-benzo[b][1,4]oxazin-4(3H)-yl)sulfonyl)-1-(difluoromethyl)-3-methyl-1H-pyrazole], 9.92 nM. As for `Cc1cc(S(=O)(=O)N2C[C@H](CCC(=O)O)Oc3ccc(NC(=O)OC(C)(C)C(F)(F)F)cc32)c(Cl)cc1F` [Example 6BA, (S)-3-(4-((2-chloro-4-fluoro-5-methylphenyl)sulfonyl)-6-((((1,1,1-trifluoro-2-methylpropan-2-yl)oxy)carbonyl)amino)-3,4-dihydro-2H-benzo[b][1,4]oxazin-2-yl)propanoic acid], the figure is 7.31 nM.

Take `CCn1cc(S(=O)(=O)N2C[C@H](CCC(=O)O)Oc3ccc(NC(=O)OC(C)(C)C(F)(F)F)cc32)c(OC(F)F)n1` [Example 6BC, (S)-3-(4-((3-(difluoromethoxy)-1-ethyl-1H-pyrazol-4-yl)sulfonyl)-6-((((1,1,1-trifluoro-2-methylpropan-2-yl)oxy)carbonyl)amino)-3,4-dihydro-2H-benzo[b][1,4]oxazin-2-yl)propanoic acid]: the IC50 came to 11.9 nM.

On to `CC(C)(OC(=O)Nc1ccc2c(c1)N(S(=O)(=O)c1cccc(S(F)(F)(F)(F)F)c1)C[C@H](CCC(=O)O)O2)C(F)(F)F` [Example 6BD, 3-[(2S)-4-{[3-(pentafluoro-lambda~6~- sulfanyl)phenyl]sulfonyl}-6-{[(2,2,2-trifluoro-1,1-dimethylethoxy)carbonyl]amino}-3,4-dihydro-2H-1,4-benzoxazin-2-yl]propanoic acid], for which the IC50 was found to be 14.8 nM.
